How the values were obtained:
[1] = tested on: H7 regulatory region fused to GUS reporter gene in transgenic tobacco plants; assay: In planta induction of GUS expression by ABA (histochemical GUS assay); assay type: in vivo, tobacco (cultivar PetH4); conditions: plants sprayed with 25-50 mL 6.0 AM ABA in distilled water with Tween-20, left 24 h; non-treated plants exhibited no GUS activity
Description: Tobacco leaves from regenerated plants grown in the greenhouse, and leaves and stems from M. truncatula plants grown from the cocultivated seedlings were incubated in the X-gluc substrate and the green pigments removed for visualization of the blue precipitate resulting from GUS enzyme activity (Jefferson et al., 1987, EMBO J. 6:3901-7).
(§1) In order to test induction of the expression of transgenes using abscisic acid (ABA), the H7 promoter was fused to the beta-glucuronidase (GUS) reporter gene and histochemical assays conducted for GUS gene activity, which results in a blue colour in plant tissue (Jefferson et al., 1987, EMBO J. 6:3901-7). The promoter region for the H7 (nucleotides 1-634 of FIG. 8; SEQ ID NO:4) was fused to the 5′ terminus of the GUS gene in the binary vector pB1101 (Jefferson et al., 1987, EMBO J. 6:3901-7, FIG. 1a), as described in Example 4.
The binary vector was transferred tobacco plants (cultivar PetH4) using Agrobacterium tumefaciens, as previously described in Example 4.
(§2) Transgenic plants were grown to maturity, but prior to flowering, in a greenhouse at 23-25° C., with supplemental light to provide an approximately 16 h photoperiod and with 20-20-20 fertilizer as required.
Plants were sprayed with 25-50 mL 6.0 AM ABA (trans isomers ABA, Sigma) in distilled water, with a drop of Tween™-20 until the leaves were dripping. […]

[2] = tested on: H7 regulatory region fused to GUS reporter gene in transgenic tobacco callus; assay: In vitro induction of GUS expression by ABA in callus (histochemical GUS assay); assay type: cell-based, tobacco (cultivar PetH4); conditions: callus on solid media pH 5.0 with 40 μM ABA, 2 days, 25° C.
Source text: as §1, §2
Leaf discs were cut and surface sterilized using 3.5% bleach for 20 min, then washed with ethanol and rinsed three times with distilled water. The washed discs were plated in Petri dishes on original callusing media (MS medium supplemented with vitamins, 2.0 mg/L NAA, 0.2 mg/L BAP pH 5.8, 7 g/L agar solid media and 100 mg/L kanamycin). The Petri dishes were then placed in a dark incubator at 25° C. for 3 days. Following dark incubation, plated discs were then incubated at 25° C. with a 16 h photoperiod for 2-3 weeks.
Over this time, abundant callus (white or pale green) are formed, overgrowing the original tissue. […]

With CC1=CC(=O)CC(C)(C)[C@@]1(O)/C=C/C(C)=C\C(=O)O [ABA, abscisic acid] the “GUS activity in leaves” value [1] was “GUS activity was detected” and the “GUS expression in callus” value [2] was “GUS is expressed in the callus”.
